Key:
[1] = test system: Human colon tumor cells (Colo205); test: Cell growth inhibition assay (CellTiter-Glo), Colo205; assay type: cell-based; details: COLO 205, Table 2b, later runs, average for the one or more runs, categorized, read-out: IC50 for Colo205
How it was run: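 Read-out was CellTiter-Glo luminescence (total ATP as a cell-number surrogate), expressed as % inhibition against DMSO vehicle wells. Before that, cells grown in RPMI/10% FBS were treated for 3 days at 37 °C with ten 1:3-spaced compound concentrations, final DMSO 0.2%.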

WM115 = test: 3 day proliferation assay, B-Raf V600E mutant cancer cell line; assay type: cell-based; details: Homo sapiens, WM-115, WM115, Skin, BRAF V600D, read-out: Mean gIC50
SW1417 = test: as above; assay type: cell-based; details: Homo sapiens; SW1417, Colon, BRAF V600E; read-out: Mean gIC50
ES-2 = test: as above; assay type: cell-based; details: Homo sapiens; ES-2, Ovary, BRAF V600E; read-out: Mean gIC50
A375P F11s [2] = test: as above; assay type: cell-based; details: Skin, BRAF V600E, read-out: Mean gIC50
C32TG = test: as above; assay type: cell-based; details: Skin, BRAF V600E, read-out: Mean gIC50
SK-MEL-28 = test: as above; assay type: cell-based; details: Homo sapiens; SK-MEL-28, Skin, BRAF V600E; read-out: Mean gIC50
RKO = test: as above; assay type: cell-based; details: Homo sapiens, Colon, BRAF V600E, read-out: Mean gIC50
GCT = test: as above; assay type: cell-based; details: Homo sapiens, Skin, BRAF V600E, read-out: Mean gIC50
[3] = test system: cancer cell lines encoding B-Raf V600E mutation; test: 3 day proliferation assay, panel of 22 mutant cancer cell lines; assay type: cell-based; details: number of cell lines of the panel
A673 = test: 3 day proliferation assay, B-Raf V600E mutant cancer cell line; assay type: cell-based; details: Homo sapiens; A673, Muscle, BRAF V600E; read-out: Mean gIC50
SW872 = test: as above; assay type: cell-based; details: Homo sapiens; SW872, Connective tissue, BRAF V600E; read-out: Mean gIC50
UCLA-SO-M14 = test: as above; assay type: cell-based; details: UCLA-SO-M14, Skin, BRAF V600E; read-out: Mean gIC50
DU4475 = test: as above; assay type: cell-based; details: Homo sapiens, DU-4475; DU4475, Breast, BRAF V600E; read-out: Mean gIC50
COLO 205 = test: as above; assay type: cell-based; details: Homo sapiens; COLO 205, Colon, BRAF V600E; read-out: Mean gIC50
UACC-62 = test: as above; assay type: cell-based; details: Homo sapiens; UACC-62, Skin, BRAF V600E; read-out: Mean gIC50
SH-4 = test: as above; assay type: cell-based; details: Homo sapiens; SH-4, Skin, BRAF V600E; read-out: Mean gIC50
UACC-257 = test: as above; assay type: cell-based; details: Homo sapiens; UACC-257, Skin, BRAF V600E; read-out: Mean gIC50
A101D = test: as above; assay type: cell-based; details: Homo sapiens, Skin, BRAF V600E, read-out: Mean gIC50
NCI-H292 = test: as above; assay type: cell-based; details: Homo sapiens, NCI-H292, Lung, BRAF T119S, read-out: Mean gIC50
SK-MEL-3 = test: as above; assay type: cell-based; details: Homo sapiens, SK-MEL3; SK-MEL-3, Skin, BRAF V600E; read-out: Mean gIC50
HT-29 = test: as above; assay type: cell-based; details: Homo sapiens, HT-29, Colon, BRAF T119S, read-out: Mean gIC50
MALME-3M = test: as above; assay type: cell-based; details: Homo sapiens, Skin, BRAF V600E, read-out: Mean gIC50
SK-MEL-1 = test: as above; assay type: cell-based; details: Homo sapiens; SK-MEL-1, Skin, BRAF V600E; read-out: Mean gIC50
[4] = test system: Human melanoma cancer cells (SK-MEL-28); test: Cell growth inhibition assay (CellTiter-Glo), SK-MEL-28; assay type: cell-based; details: SK-MEL-28, Table 3b, later runs, average for the one or more runs, categorized, read-out: IC50 for SK-MEL-28
A375P F11s [5] = test: Dose dependent tumor inhibition, A375P F11s xenograft; assay type: in vivo, athymic mice; set-up: key: −: indicates no response; +: indicates growth delay (1-2x doubling); ++: indicates growth delay (>2x doubling); +++: indicates stable disease; ++++: indicates partial regression; +++++: indicates complete regression; details: oral, 14-day period
Description: 1. […] Tumor cells (2×10^6 A375P F11s) were implanted subcutaneously into the right flank of athymic mice on Day 1. To facilitate their growth, A375P F11s cells were suspended in Matrigel diluted 1:1 in phosphate-buffered saline before implantation. When tumors had reached approximately 200 mm^3 in volume (Day 19-22), tumor-bearing mice were randomized into study groups (n=7 or 8). Animals were dosed orally once or twice daily for a 14-day period. […] Tumor growth was measured twice a week using calipers for the duration of the study. Tumor volumes were calculated as a product of (length×width×width)/2 and median values were used to compare groups. Complete regressions (CR) were defined as three consecutive tumor measurements of ≦13.5 mm^3. Partial regressions were defined as three consecutive measurements of ≦50% of starting tumor volume. Tumor growth delay was defined as the difference in time taken for treated and control groups to reach 1000 mm^3 (T-C1000).

A375P F11s [6] = test: 3-day proliferation assays, selection of A375P F11s clone; assay type: cell-based, human; details: A375P F11s subclone of A375P
Description: Activity of select exemplified compounds was tested in vivo against A375 PF11s (melanoma cell line encoding a B-Raf V600E mutation) xenograft mouse model. The A375P F11s cell line, encoding a mutation for BRAF^V600E, was subcloned from the A375P human melanoma cell line (obtained from ATCC, Cat # CRL-1619) by limiting dilution and selected based on high (90%) sensitivity to the BRAF inhibitor, SB-590885 (commercially available), in 3-day proliferation assays. The selected clone (A375P F11s) was isolated and mutation in B-Raf (T1799A) encoding the V600E amino acid change was reconfirmed.

In the case of `CC(C)(C)c1nc(-c2cccc(NS(=O)(=O)c3c(F)cccc3F)c2F)c(-c2ccnc(N)n2)s1` [Example 58a, N-{3-[5-(2-Amino-4-pyrimidinyl)-2-(1,1-dimethylethyl)-1,3-thiazol-4-yl]-2-fluorophenyl}-2,6-difluorobenzenesulfonamide], the IC50 [1] is reported as < 100 nM, the IC50 (WM115) is reported as < 100 nM and the IC50 (SW1417) is reported as 100 to 1000 nM. For the same molecule, the IC50 (ES-2) was < 100 nM, the IC50 (A375P F11s [2]) was < 100 nM and the IC50 (C32TG) was < 100 nM. For the same molecule, the IC50 (SK-MEL-28) was < 100 nM, the IC50 (RKO) was ≥ 1000 nM and the IC50 (GCT) was ≥ 1000 nM. The “cancer cell lines encoding B-Raf V600E sensitive with gIC50<100 nM” value [3] was 16 out of 22, the “cancer cell lines not sensitive (gIC50>1000M)” value [3] was 4 out of 22 and the “cancer cell lines with intermediate response (gIC50≧100 nM and <1000 nM)” value [3] was 2 out of 22. The IC50 (A673) was ≥ 1000 nM, the IC50 (SW872) was 100 to 1000 nM and the IC50 (UCLA-SO-M14) was < 100 nM. For the same molecule, the IC50 (DU4475) was < 100 nM, the IC50 (COLO 205) was < 100 nM and the IC50 (UACC-62) was < 100 nM. For the same molecule, the IC50 (SH-4) was < 100 nM, the IC50 (UACC-257) was < 100 nM and the IC50 (A101D) was < 100 nM. For the same molecule, the IC50 (NCI-H292) was ≥ 1000 nM, the IC50 (SK-MEL-3) was < 100 nM and the IC50 (HT-29) was < 100 nM. The IC50 (MALME-3M) was < 100 nM, the IC50 (SK-MEL-1) was < 100 nM and the IC50 [4] was < 100 nM. The Response (A375P F11s [5]; 0.1 mg/kg qd) was “−” and the Response (A375P F11s [5]; 1 mg/kg qd) was “+ (indicates growth delay (1-2x doubling))”.

With `CN(C)CCOc1ccc(-c2nc(-c3ccncc3)c(-c3ccc4c(c3)CC/C4=N\O)[nH]2)cc1` [SB-590885] the “sensitivity to the BRAF inhibitor in 3-day proliferation assays” value (A375P F11s [6]) was 90%.
